Reference: PubChem BioAssay AID330 (DTP/NCI, 2004)
Where “and” joins values, the source holds several entries; their conditions need not be identical. Equal values may be shown once. Toxic doses and inconclusive results are not listed.

System: P388 leukemia ip, CD2F1 mice, survival T/C
Assay: NCI In Vivo Anticancer Drug Screen. Data for tumor model P388 Leukemia (intraperitoneal) in CD2F1 (CDF1) mice
Conditions: endpoint: median survival time, higher = longer survival
Summary of the method: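 Mice carrying the transplanted tumor received test compound or vehicle. Survival was recorded in each group, and the value is the treated-group measurement divided by that of the vehicle-treated control group.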

[1] = dose: 60.0 mg/kg/injection, schedule: Q01DX005 (ip), vehicle: saline with Tween-80
[2] = dose: 120.0 mg/kg/injection, schedule: Q01DX005 (ip), vehicle: saline with Tween-80
[3] = dose: 240.0 mg/kg/injection, schedule: Q01DX005 (ip), vehicle: saline with Tween-80
[4] = dose: 15.0 mg/kg/injection, schedule: Q01DX005 (ip), vehicle: saline with Tween-80
[5] = dose: 30.0 mg/kg/injection, schedule: Q01DX005 (ip), vehicle: saline with Tween-80
[6] = dose: 25.0 mg/kg/injection, schedule: Q01DX009 (ip), vehicle: saline with Tween-80
[7] = dose: 50.0 mg/kg/injection, schedule: Q01DX005 (ip), vehicle: saline
[8] = dose: 100.0 mg/kg/injection, schedule: Q01DX005 (ip), vehicle: saline
[9] = dose: 50.0 mg/kg/injection, schedule: Q01DX005 (ip), vehicle: saline with Tween-80
[10] = dose: 100.0 mg/kg/injection, schedule: Q01DX005 (ip), vehicle: saline with Tween-80
[11] = dose: 50.0 mg/kg/injection, schedule: Q01DX005 (ip), vehicle: Klucel (hydroxypropylcellulose) (HPC)
[12] = dose: 200.0 mg/kg/injection, schedule: Q01DX005 (ip), vehicle: saline with Tween-80

CN1C(=O)NC(c2ccc(Cl)cc2)(c2ccc(Cl)cc2)C1=O
T/C (dose: 5.0 mg/kg/injection, schedule: Q04DX003 (ip), vehicle: other): 105 % of control
T/C (dose: 10.0 mg/kg/injection, schedule: Q04DX003 (ip), vehicle: other): 104 % of control
T/C (dose: 20.0 mg/kg/injection, schedule: Q04DX003 (ip), vehicle: other): 107 % of control
T/C (dose: 25.0 mg/kg/injection, schedule: Q04DX003 (ip), vehicle: other): 101 % of control
T/C (dose: 40.0 mg/kg/injection, schedule: Q04DX003 (ip), vehicle: other): 118 % of control
T/C (dose: 50.0 mg/kg/injection, schedule: Q04DX003 (ip), vehicle: other): 119 % of control

CC(C)(C)SC(=S)SCC(=O)c1ccc(F)cc1
T/C [1]: 102 % of control
T/C [2]: 103 % of control
T/C [3]: 102 % of control

O=C(Nc1ccc(Cl)cc1)Nc1nnc(COc2ccc(Cl)c(Cl)c2)o1
T/C [4]: 87 % of control and 90 % of control
T/C [5]: 90 % of control
T/C [1]: 89 % of control and 93 % of control
T/C [2]: 98 % of control
T/C [3]: 91 % of control

Clc1ccc(C2=CSC3=NCCN23)cc1
T/C (dose: 12.5 mg/kg/injection, schedule: Q01DX009 (ip), vehicle: Klucel (hydroxypropylcellulose) (HPC)): 111 % of control
T/C (dose: 25.0 mg/kg/injection, schedule: Q01DX009 (ip), vehicle: Klucel (hydroxypropylcellulose) (HPC)): 110 % of control

CCN(CC)P(CCCCP(N(CC)CC)N(CC)CC)N(CC)CC
T/C (dose: 60.0 mg/kg/injection, schedule: Q01DX005 (ip), vehicle: Klucel (hydroxypropylcellulose) (HPC)): 106 % of control
T/C (dose: 120.0 mg/kg/injection, schedule: Q01DX005 (ip), vehicle: Klucel (hydroxypropylcellulose) (HPC)): 103 % of control
T/C (dose: 240.0 mg/kg/injection, schedule: Q01DX005 (ip), vehicle: Klucel (hydroxypropylcellulose) (HPC)): 104 % of control

Cc1cc(C)n(-c2ccnc(N3CCOCC3)n2)n1
T/C (dose: 100.0 mg/kg/injection, schedule: Q01DX001 (ip), vehicle: saline): 100 % of control
T/C (dose: 200.0 mg/kg/injection, schedule: Q01DX001 (ip), vehicle: saline): 96 % of control
T/C (dose: 400.0 mg/kg/injection, schedule: Q01DX001 (ip), vehicle: saline): 97 % of control

c1cc2cc(-c3cc4ccc(C5=NCCN5)cc4[nH]3)[nH]c2cc1C1=NCCN1
T/C (dose: 100.0 mg/kg/injection, schedule: Q04DX003 (ip), vehicle: saline): 210 % of control
T/C (dose: 200.0 mg/kg/injection, schedule: Q04DX003 (ip), vehicle: saline): 189 % of control
T/C (dose: 400.0 mg/kg/injection, schedule: Q04DX003 (ip), vehicle: saline): 159 % of control

CCN=NNc1ccc(C)cc1
T/C [6]: 110 % of control

CCN(CC)CCC(=O)c1ccc(OC)c2ccccc12
T/C [7]: 103 % of control
T/C [8]: 104 % of control
T/C (dose: 200.0 mg/kg/injection, schedule: Q01DX005 (ip), vehicle: saline): 103 % of control

COc1cccc(/C=C/C(C)=N/NC(N)=S)c1
T/C (dose: 6.25 mg/kg/injection, schedule: Q01DX005 (ip), vehicle: saline with Tween-80): 107 % of control
T/C (dose: 12.5 mg/kg/injection, schedule: Q01DX005 (ip), vehicle: saline with Tween-80): 107 % of control
T/C (dose: 25.0 mg/kg/injection, schedule: Q01DX005 (ip), vehicle: saline with Tween-80): 111 % of control
T/C [9]: 118 % of control
T/C [10]: 101 % of control

COC1CCC2(C)C(=CCC3C2CCC2(C)C(OCCOS(=O)(=O)c4ccc(C)cc4)CCC32)C1 (stereo not drawn)
T/C (dose: 100.0 mg/kg/injection, schedule: Q01DX001 (ip), vehicle: saline with Tween-80): 101 % of control
T/C (dose: 200.0 mg/kg/injection, schedule: Q01DX001 (ip), vehicle: saline with Tween-80): 106 % of control
T/C (dose: 400.0 mg/kg/injection, schedule: Q01DX001 (ip), vehicle: saline with Tween-80): 100 % of control

O=C(NC(c1ccccc1)N1CCOCC1)c1ccccc1 (stereo not drawn)
T/C (dose: 50.0 mg/kg/injection, schedule: Q01DX005 (ip), vehicle: Klucel + Tween-80): 108 % of control
T/C (dose: 100.0 mg/kg/injection, schedule: Q01DX005 (ip), vehicle: Klucel + Tween-80): 112 % of control
T/C (dose: 200.0 mg/kg/injection, schedule: Q01DX005 (ip), vehicle: Klucel + Tween-80): 114 % of control

Cc1nc2c(cnn2C)c(=O)[nH]1
T/C [11]: 96 % of control
T/C (dose: 100.0 mg/kg/injection, schedule: Q01DX005 (ip), vehicle: Klucel (hydroxypropylcellulose) (HPC)): 98 % of control
T/C (dose: 200.0 mg/kg/injection, schedule: Q01DX005 (ip), vehicle: Klucel (hydroxypropylcellulose) (HPC)): 97 % of control

O=[N+]([O-])c1cnc(/C=N/N2CCN(/N=C/c3ncc([N+](=O)[O-])[nH]3)CC2)[nH]1
T/C (dose: 12.5 mg/kg/injection, schedule: Q01DX009 (ip), vehicle: saline with Tween-80): 90 % of control
T/C [6]: 89 % of control
T/C (dose: 50.0 mg/kg/injection, schedule: Q01DX009 (ip), vehicle: saline with Tween-80): 88 % of control

CCCC(=O)N(C)O
T/C [10]: 108 % of control
T/C [12]: 103 % of control

CCN(CC)CCCNc1cc(OC)cc2nc3cc(Cl)ccc3nc12
T/C [7]: 100 % of control
T/C [8]: 106 % of control

COc1ccc(/C=C/C(C)=N/NC(N)=O)cc1
T/C [9]: 101 % of control
T/C [10]: 94 % of control
T/C [12]: 96 % of control

CC1=CC2=C(C#N)C(=O)OC2(C)C(c2ccccc2)C1 (stereo not drawn)
T/C [1]: 100 % of control
T/C [2]: 101 % of control
T/C [3]: 100 % of control

[CH3][Sn]([CH3])([n]1ccnc1)[n]1ccnc1
T/C (dose: 6.25 mg/kg/injection, schedule: Q01DX005 (ip), vehicle: Klucel (hydroxypropylcellulose) (HPC)): 120 % of control
T/C (dose: 12.5 mg/kg/injection, schedule: Q01DX005 (ip), vehicle: Klucel (hydroxypropylcellulose) (HPC)): 119 % of control
T/C [11]: 120 % of control

CCSc1nc2ccc(CN3C(=O)c4ccccc4C3=O)cc2s1
T/C (dose: 50.0 mg/kg/injection, schedule: Q01DX009 (ip), vehicle: Klucel (hydroxypropylcellulose) (HPC)): 92 % of control
T/C (dose: 100.0 mg/kg/injection, schedule: Q01DX009 (ip), vehicle: Klucel (hydroxypropylcellulose) (HPC)): 89 % of control
T/C (dose: 200.0 mg/kg/injection, schedule: Q01DX009 (ip), vehicle: Klucel (hydroxypropylcellulose) (HPC)): 86 % of control

CN(C)CCN1c2ccccc2Sc2ccc3ccccc3c21
T/C (dose: 50.0 mg/kg/injection, schedule: Q01DX005 (ip), vehicle: saline + Tween-80 + alcohol): 104 % of control
T/C (dose: 100.0 mg/kg/injection, schedule: Q01DX005 (ip), vehicle: saline + Tween-80 + alcohol): 107 % of control
T/C (dose: 200.0 mg/kg/injection, schedule: Q01DX005 (ip), vehicle: saline + Tween-80 + alcohol): 107 % of control

COc1ccc(-n2[nH]c3c(cnc4ccccc43)c2=O)cc1
T/C [4]: 87 % of control
T/C [5]: 87 % of control
T/C [1]: 90 % of control
T/C [2]: 100 % of control
T/C [3]: 94 % of control

CC1=C(CO)C(=O)OC(C(C)C2CCC3C4CC5OC56C(O)C(N5CC5)=CC(=O)C6(C)C4CCC23C)C1 (stereo not drawn)
T/C (dose: 5.0 mg/kg/injection, schedule: Q01DX005 (ip), vehicle: Klucel (hydroxypropylcellulose) (HPC)): 110 % of control
T/C (dose: 10.0 mg/kg/injection, schedule: Q01DX005 (ip), vehicle: Klucel (hydroxypropylcellulose) (HPC)): 120 % of control and 91 % of control and 97 % of control
T/C (dose: 20.0 mg/kg/injection, schedule: Q01DX005 (ip), vehicle: Klucel (hydroxypropylcellulose) (HPC)): 103 % of control and 104 % of control and 123 % of control
T/C (dose: 40.0 mg/kg/injection, schedule: Q01DX005 (ip), vehicle: Klucel (hydroxypropylcellulose) (HPC)): 103 % of control and 106 % of control and 123 % of control
T/C (dose: 80.0 mg/kg/injection, schedule: Q01DX005 (ip), vehicle: Klucel (hydroxypropylcellulose) (HPC)): 108 % of control and 109 % of control
T/C (dose: 160.0 mg/kg/injection, schedule: Q01DX005 (ip), vehicle: Klucel (hydroxypropylcellulose) (HPC)): 105 % of control

COc1ccc(N(Cc2ccc(C)o2)C(=S)Nc2ccccc2)cc1
T/C [1]: 98 % of control
T/C [2]: 102 % of control
T/C [3]: 105 % of control

C/C(=C\[P+](c1ccccc1)(c1ccccc1)c1ccccc1)N1CC1
T/C (dose: 6.0 mg/kg/injection, schedule: Q01DX001 (ip), vehicle: saline with Tween-80): 107 % of control and 115 % of control
T/C (dose: 9.0 mg/kg/injection, schedule: Q01DX001 (ip), vehicle: saline with Tween-80): 101 % of control and 113 % of control
T/C (dose: 12.0 mg/kg/injection, schedule: Q01DX001 (ip), vehicle: saline with Tween-80): 105 % of control and 108 % of control
T/C (dose: 12.5 mg/kg/injection, schedule: Q01DX001 (ip), vehicle: saline with Tween-80): 123 % of control
T/C (dose: 18.0 mg/kg/injection, schedule: Q01DX001 (ip), vehicle: saline with Tween-80): 105 % of control and 113 % of control

COC1OC(C(C)O)C2OC(C)(C)OC12 (stereo not drawn)
T/C [5]: 101 % of control
T/C [1]: 104 % of control and 106 % of control
T/C [2]: 108 % of control
T/C [3]: 106 % of control and 110 % of control
